The values below come from article PMC5368959, “Uricosuric targets of tranilast” (Pharmacology Research & Perspectives, 2017).

In test [1] the target is T1, URAT1 (Homo sapiens, UniProt Q96S37).
T1 sequence (Q96S37 1-553): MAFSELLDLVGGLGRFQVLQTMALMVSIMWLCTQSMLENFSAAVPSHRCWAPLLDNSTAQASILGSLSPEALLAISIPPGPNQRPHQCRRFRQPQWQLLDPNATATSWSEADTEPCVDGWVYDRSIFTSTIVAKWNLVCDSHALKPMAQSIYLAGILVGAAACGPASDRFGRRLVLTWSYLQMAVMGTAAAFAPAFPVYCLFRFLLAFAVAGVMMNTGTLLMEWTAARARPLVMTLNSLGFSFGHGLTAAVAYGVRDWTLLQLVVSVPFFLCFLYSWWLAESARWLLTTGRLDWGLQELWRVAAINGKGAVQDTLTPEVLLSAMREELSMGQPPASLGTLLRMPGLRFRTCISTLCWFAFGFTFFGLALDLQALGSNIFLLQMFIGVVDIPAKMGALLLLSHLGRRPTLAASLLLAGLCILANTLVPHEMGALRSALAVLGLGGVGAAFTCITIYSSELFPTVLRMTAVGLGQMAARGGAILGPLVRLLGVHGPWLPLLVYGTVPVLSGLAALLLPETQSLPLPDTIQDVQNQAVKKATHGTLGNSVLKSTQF
Kind of test: [14C]-urate uptake by URAT1-expressing Xenopus oocytes. Format: cell-based. To be noted: for IC50: 40 μmol/L urate. The source says: (§1) For uptake experiments, oocytes were washed four times with ND96 medium (pH 7.4) without pyruvate and gentamycin.

The target of test [2] is T1, URAT1. Kind of test: [14C]-nicotinate uptake by URAT1-expressing Xenopus oocytes. Type of test: cell-based.
Source text: as §1
Data are mean ± S.E. with n = 12–15.

Test [3] has as its system inflammation induced by monosodium urate (MSU) crystals. On the set-up: method as in Serafini and Emerling 2010. To be noted: ref Serafini and Emerling 2010; cited from earlier work.
The target in a further test is OAT10 (Homo sapiens, UniProt Q9Y226). Put plainly: [14C]-nicotinate uptake by OAT10-expressing Xenopus oocytes. Format: cell-based. To be noted: for Inhibition of OAT10 [14C]-nicotinate uptake: drug 100 μmol/L. On the procedure: as §1
OAT10, sequence (Q9Y226 whole entry): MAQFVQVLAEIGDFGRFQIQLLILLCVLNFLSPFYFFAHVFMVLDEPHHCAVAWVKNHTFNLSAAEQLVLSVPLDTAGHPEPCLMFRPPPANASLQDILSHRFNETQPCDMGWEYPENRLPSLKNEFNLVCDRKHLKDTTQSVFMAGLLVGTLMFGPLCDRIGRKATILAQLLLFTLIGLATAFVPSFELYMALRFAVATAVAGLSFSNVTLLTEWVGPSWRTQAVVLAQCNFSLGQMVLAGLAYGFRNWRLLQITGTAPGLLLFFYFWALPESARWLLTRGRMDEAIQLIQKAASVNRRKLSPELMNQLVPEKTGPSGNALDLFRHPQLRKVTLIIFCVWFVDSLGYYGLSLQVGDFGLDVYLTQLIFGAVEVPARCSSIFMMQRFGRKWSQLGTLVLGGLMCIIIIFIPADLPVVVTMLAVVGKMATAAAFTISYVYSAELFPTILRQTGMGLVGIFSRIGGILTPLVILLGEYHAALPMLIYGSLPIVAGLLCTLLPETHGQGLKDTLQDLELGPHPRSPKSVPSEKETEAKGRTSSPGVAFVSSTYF
Chloride ion‐dependence was also assessed; in 0 Cl^− bath, NaCl was replaced by Na‐gluconate (Na‐Gluc), KCl by K‐gluconate (K‐Gluc), MgCl2 by Mg‐gluconate, and CaCl2 by Ca‐gluconate. […] Data are mean ± S.E. with n = 12–15.

In the next test the target is T2, OAT1 (Homo sapiens, UniProt Q4U2R8).
T2 sequence (Q4U2R8 1-563): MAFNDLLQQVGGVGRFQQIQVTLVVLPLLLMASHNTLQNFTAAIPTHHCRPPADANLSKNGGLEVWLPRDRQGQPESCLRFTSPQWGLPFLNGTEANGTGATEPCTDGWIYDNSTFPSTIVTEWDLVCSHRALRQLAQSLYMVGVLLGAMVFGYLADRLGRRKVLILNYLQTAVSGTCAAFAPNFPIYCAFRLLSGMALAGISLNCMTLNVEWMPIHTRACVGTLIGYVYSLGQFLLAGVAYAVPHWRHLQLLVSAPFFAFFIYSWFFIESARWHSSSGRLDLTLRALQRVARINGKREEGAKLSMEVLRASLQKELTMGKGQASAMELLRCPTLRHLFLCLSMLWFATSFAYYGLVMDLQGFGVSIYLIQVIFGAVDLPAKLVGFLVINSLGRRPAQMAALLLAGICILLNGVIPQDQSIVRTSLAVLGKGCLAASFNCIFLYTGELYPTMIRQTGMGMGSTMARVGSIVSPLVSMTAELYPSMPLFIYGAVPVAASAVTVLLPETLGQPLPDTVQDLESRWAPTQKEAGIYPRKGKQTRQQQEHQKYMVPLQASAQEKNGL
Kind of test: [14C]-urate uptake by OAT1-expressing Xenopus oocytes. Format: cell-based. As to conditions: drug 100 μmol/L.
Source text: as §1

Details of test [4]: method as in Sundy and Kitt 2010. As to conditions: at least partially due to uricosuric effects; ref Sundy and Kitt 2010; cited from earlier work.
Where [5] appears, read: PZA-preloaded oocytes, read-out: IC50, OAT10-mediated [14C]-nicotinate/PZA exchange.

One may read the Ki as a dissociation constant, usually derived from enzyme kinetics or from competition with a known ligand.

Values joined by “and” are separate entries in the source; they are usually repeats but may differ in a detail not shown here. Equal values may be shown once. Read-outs that look alike come from different tables or passages of the source.

For the compound `CCCN(CCC)S(=O)(=O)c1ccc(C(=O)O)cc1` [probenecid], at URAT1 [1], the “Inhibition of URAT1-mediated [14C]-urate/PZA or /nicotinate exchange” value is recorded as “efficiently inhibited” and the “Reversibility of URAT1 inhibition” value is on record as “not reversible”. For the same compound, the “Sensitivity of URAT1-mediated [14C]-nicotinate uptake to drug” value at URAT1 [2] (data not shown) is recorded as “very sensitive”.

For `COc1ccc(C=CC(=O)Nc2ccccc2C(=O)O)cc1OC` [tranilast, N‐(3,4‐dimethoxycinnamoyl) anthranilic acid], the “Effect on inflammation induced by MSU crystals in vivo” value in test [3] is “suppresses inflammation”. The “URAT1 urate transport inhibition after washing and removal of inhibitor” value at URAT1 [1] was “almost no inhibition”. For the same compound, the “Vmax of URAT1-mediated urate uptake” value at URAT1 [1] is 120.1 pmoles/oocyte/h and 63.5 pmoles/oocyte/h. For the same compound, the “mode of inhibition of URAT1-mediated urate transport” value at URAT1 [1] is reported as “noncompetitive inhibition (mixed)”. Further, at URAT1 [1] (Eadie-Hofstee analysis, read-out: inhibition constant (Ki) for URAT1-mediated urate uptake), the inhibition constant (Ki) was 21.3 ± 2.2 µM. Further, the IC50 against URAT1 [1] (IC50, URAT1-mediated [14C]-urate/PZA or [14C]-urate/nicotinate exchange, oocytes preloaded with nicotinate (Fig. 1E), 1 h) was 21 µM and ~21 µM; at URAT1 [1] (uptake in the absence of PZA or nicotinate preloading, data not shown, read-out: IC50, basal URAT1-mediated [14C]-urate uptake) it was ~20 µM; at OAT10 (setting [5]) it was ~43.1 µM; on OAT10 (without preloading, data not shown, read-out: IC50, OAT10-mediated [14C]-nicotinate uptake), ~42 µM; on URAT1 [2] (PZA-preloaded oocytes, 40 μmol/L nicotinate, read-out: IC50, URAT1-mediated [14C]-nicotinate uptake ([14C]-nicotinate/PZA exchange)) it was ~190 µM and 190 µM and > 185 µM. For the same compound, the “Inhibition of OAT10 [14C]-nicotinate uptake” value on OAT10 was “inhibited”. Besides, the “Inhibition of OAT1-mediated urate uptake” value at OAT1 is given as “effectively inhibited”. The “Effect on SUA in healthy human subjects” value in test [4] is listed as “potent reduction in SUA”.

As to `CCc1oc2ccccc2c1C(=O)c1cc(Br)c(O)c(Br)c1` [benzbromarone], at URAT1 [1], the “Inhibition of URAT1-mediated [14C]-urate/PZA or /nicotinate exchange” value is “efficiently inhibited”; the “Reversibility of URAT1 inhibition” value was “not reversible”; the “URAT1 urate transport inhibition after washing and removal of inhibitor” value is “substantially inhibited”. At OAT10 (setting [5]), the IC50 is ~22.8 µM. Besides, the “Inhibition of OAT10 [14C]-nicotinate uptake” value on OAT10 is on record as “inhibited”. The “Inhibition of OAT1-mediated urate uptake” value at OAT1 is on record as “effectively inhibited”.
